US20160193206A1, “BET-PROTEIN-INHIBITING DIHYDROPYRIDOPYRAZINONES” (BAYER PHARMA AKTIENGESELLSCHAFT, priority 2012, published 2016)

Experiments:
[1] = target: T1, BRD4 bromo domain 1 [BRD4(1)] (Homo sapiens, UniProt O60885); experiment: BRD4(1)/acetylated peptide H4 binding assay (TR-FRET); details: inhibition of interaction between His6-tagged BRD4(1) (amino acids 67-152) and acetylated histone H4 peptide
T1 construct: N-terminally His6-tagged BRD4(1) (amino acids 67-152); made in house; host or cells: E. coli
Source text: (§1) Protein-Protein Interaction Assay: BRD4/Acetylated Peptide H4 Binding Assay
1. Assay Description for BRD4 Bromo Domain 1 [BRD4(1)]
To assess the BRD4(1) binding strength of the substances described in this application, the ability thereof to inhibit the interaction between BRD4(1) and acetylated histone H4 in a dose-dependent manner was quantified.
(§2) For this purpose, a time-resolved fluorescence resonance energy transfer (TR-FRET) assay was used, which measures the binding between N-terminally His6-tagged BRD4(1) (amino acids 67-152) and a synthetic acetylated histone H4 (Ac-H4) peptide with sequence GRGK(Ac)GGK(Ac)GLGK(Ac)GGAK(Ac)RHGSGSK-biotin. The recombinant BRD4(1) protein produced in-house according to Filippakopoulos et al., Cell, 2012, 149:214-231 was expressed in E. coli and purified by means of (Ni-NTA) affinity and (Sephadex G-75) size exclusion chromatography. The Ac-H4 peptide can be purchased, for example, from Biosyntan (Berlin, Germany).
(§3) In the assay, typically 11 different concentrations of each substance (0.1 nM, 0.33 nM, 1.1 nM, 3.8 nM, 13 nM, 44 nM, 0.15 μM, 0.51 μM, 1.7 μM, 5.9 μM and 20 μM) were analysed as duplicates on the same microtitre plate. For this purpose, 100-fold concentrated solutions in DMSO were prepared by serial dilutions (1:3.4) of a 2 mM stock solution into a clear, 384-well microtitre plate (Greiner Bio-One, Frickenhausen, Germany). From this, 50 nl were transferred into a black test plate (Greiner Bio-One, Frickenhausen, Germany). The test was started by the addition of 2 μl of a 2.5-fold concentrated BRD4(1) solution (final concentration typically 10 nM in the 5 μl of reaction volume) in aqueous assay buffer [50 mM HEPES pH 7.5, 50 mM sodium chloride (NaCl), 0.25 mM CHAPS and 0.05% serum albumin (BSA)] to the substances in the test plate. This was followed by a 10-minute incubation step at 22° C. for the pre-equilibration of putative complexes between BRD4(1) and the substances.
(§4) The mixture was then incubated in the dark at 22° C. for one hour and then at 4° C. for at least 3 hours and for no longer than overnight. The formation of BRD4(1)/Ac-H4 complexes was determined by the measurement of the resonance energy transfer from the streptavidin-Eu cryptate to the anti-6His-XL665 antibody present in the reaction. For this purpose, the fluorescence emission was measured at 620 nm and 665 nm after excitation at 330-350 nm in a TR-FRET measuring instrument, for example a Rubystar or Pherastar (both from BMG Lab Technologies, Offenburg, Germany) or a Viewlux (Perkin-Elmer). The ratio of the emissions at 665 nm and at 622 nm was taken as an indicator of the amount of BRD4(1)/Ac-H4 complexes formed.
(§5) The data (ratios) obtained were normalized, with 0% inhibition corresponding to the mean from the measurements for a set of controls (typically 32 data points) in which all the reagents were present. In these, in place of test substances, 50 nl of DMSO (100%) were used. Inhibition of 100% corresponded to the mean from the measurements for a set of controls (typically 32 data points) in which all the reagents except BRD4(1) were present. The IC50 was determined by regression analysis based on a 4-parameter equation (minimum, maximum, IC50, Hill; Y=max+(min−max)/(1+(X/IC50)Hill).

[2] = target: T2, BRD4 bromo domain 2 [BRD4(2)] (Homo sapiens, UniProt O60885); experiment: BRD4(2)/acetylated peptide H4 binding assay (TR-FRET); details: inhibition of interaction between His6-tagged BRD4(2) (amino acids 357-445) and acetylated histone H4 peptide
T2 construct: N-terminally His6-tagged BRD4(2) (amino acids 357-445); made in house; host or cells: E. coli
Source text: as §1
2. Assay Description for BRD4 Bromo Domain 2 [BRD4(2)]
To assess the BRD4(2) binding strength of the substances described in this application, the ability thereof to inhibit the interaction between BRD4(2) and acetylated histone H4 in a dose-dependent manner was quantified.
as §2, with “BRD4(2)” for “BRD4(1)”, “357-445)” for “67-152)”, “SGRGK(Ac)GGK(Ac)GLGK(Ac)GGAK(Ac)RHRKVLRDNGSGSK-biotin.” for “GRGK(Ac)GGK(Ac)GLGK(Ac)GGAK(Ac)RHGSGSK-biotin.”
as §3, with “concentrated BRD4(2)” for “concentrated BRD4(1)”, “typically 100” for “typically 10”, “chloride (NaCl); 50 mM potassium fluoride (KF);” for “chloride (NaCl),”, “between BRD4(2)” for “between BRD4(1)”
as §4, with “BRD4(2)/Ac-H4” for “BRD4(1)/Ac-H4”, “chelate” for “cryptate”
as §5, with “BRD4(2)” for “BRD4(1)”

Row | SMILES | IC50 [1] | IC50 [2]
1 | COc1cc(C(=O)N2CCC(F)CC2)ccc1Nc1ccc2c(n1)N(Cc1ccccc1)[C@H](C)C(=O)N2C [Example 43, (3R)-4-Benzyl-6-({4-[(4-fluoropiperidin-1-yl)carbonyl]-2-methoxyphenyl}amino)-1,3-dimethyl-3,4-dihydropyrido[2,3-b]pyrazin-2(1H)-one] | 218 nM | 102 nM
2 | C[C@@H]1C(=O)N(C)c2ccc(Nc3ccc(C(=O)N[C@H]4CC[C@H](N5CCN(CC6CC6)CC5)CC4)cc3)nc2N1C1CCCCCC1 [Example 44, 4-{[(3R)-4-Cycloheptyl-1,3-dimethyl-2-oxo-1,2,3,4-tetrahydropyrido[2,3-b]pyrazin-6-yl]amino}-N-{trans-4-[4-(cyclopropylmethyl)piperazin-1-yl]cyclohexyl}benzamide] | 368 nM | 283 nM
3 | COc1cc(C(=O)NCc2ccccn2)ccc1Nc1ccc2c(n1)N(C1CCOCC1)[C@H](C)C(=O)N2C [Example 47, 4-{[(3R)-1,3-Dimethyl-2-oxo-4-(tetrahydro-2H-pyran-4-yl)-1,2,3,4-tetrahydropyrido[2,3-b]pyrazin-6-yl]amino}-3-methoxy-N-(pyridin-2-ylmethyl)benzamide] | 201 nM | 112 nM
4 | C[C@@H]1C(=O)N(C)c2ccc(Nc3ccc(C(=O)NCCc4cccnc4)cc3)nc2N1C1CCOCC1 [Example 49, 4-{[(3R)-1,3-Dimethyl-2-oxo-4-(tetrahydro-2H-pyran-4-yl)-1,2,3,4-tetrahydropyrido[2,3-b]pyrazin-6-yl]amino}-N-[2-(pyridin-3-yl)ethyl]benzamide] | 114 nM | 317 nM
5 | C[C@@H]1C(=O)N(C)c2ccc(Nc3ccc(C(=O)NC4CCC(N5CCC(F)(F)CC5)CC4)cc3)nc2N1C1CCOCC1 (some centres unmarked) [Example 52] | 166 nM | 299 nM
6 | Cc1cc(C(=O)NC2CCN(C)CC2)ccc1Nc1ccc2c(n1)N(C1CCOCC1)[C@H](C)C(=O)N2C [Example 54, 4-{[(3R)-1,3-Dimethyl-2-oxo-4-(tetrahydro-2H-pyran-4-yl)-1,2,3,4-tetrahydropyrido[2,3-b]pyrazin-6-yl]amino}-3-methyl-N-(1-methylpiperidin-4-yl)benzamide] | 357 nM | 354 nM
7 | C[C@@H]1C(=O)N(C)c2ccc(Nc3ccc(C(=O)N4CCN(C)CC4)cc3)nc2N1C1CCOCC1 [Example 56, (3R)-1,3-Dimethyl-6-({4-[(4-methylpiperazin-1-yl)carbonyl]phenyl}amino)-4-(tetrahydro-2H-pyran-4-yl)-3,4-dihydropyrido[2,3-b]pyrazin-2(1H)-one] | 139 nM | 242 nM
8 | COc1cc(C(=O)N[C@H]2CC[C@H](NC(=O)OC(C)(C)C)CC2)ccc1Nc1ccc2c(n1)N(C1CCOCC1)[C@H](C)C(=O)N2C [Example 59, tert-Butyl {trans-4-[(4-{[(3R)-1,3-dimethyl-2-oxo-4-(tetrahydro-2H-pyran-4-yl)-1,2,3,4-tetrahydropyrido[2,3-b]pyrazin-6-yl]amino}-3-methoxybenzoyl)amino]cyclohexyl}carbamate] | 533 nM | 323 nM
9 | COc1cc(C(=O)NC2CCC(O)CC2)ccc1Nc1ccc2c(n1)N(C1CCOCC1)[C@H](C)C(=O)N2C (stereo partly drawn) [Example 60, 4-{[(3R)-1,3-Dimethyl-2-oxo-4-(tetrahydro-2H-pyran-4-yl)-1,2,3,4-tetrahydropyrido[2,3-b]pyrazin-6-yl]amino}-N-(4-hydroxycyclohexyl)-3-methoxybenzamide] | 339 nM | 212 nM
10 | Cc1cc(C(=O)NCCN(C)C)ccc1Nc1ccc2c(n1)N(C1CCOCC1)[C@H](C)C(=O)N2C [Example 63, N-[2-(Dimethylamino)ethyl]-4-{[(3R)-1,3-dimethyl-2-oxo-4-(tetrahydro-2H-pyran-4-yl)-1,2,3,4-tetrahydropyrido[2,3-b]pyrazin-6-yl]amino}-3-methylbenzamide] | 262 nM | 206 nM
11 | COc1cc(C(=O)N2CCN(C3CC3)CC2)ccc1Nc1ccc2c(n1)N(C1CCOCC1)[C@H](C)C(=O)N2C [Example 65, (3R)-6-({4-[(4-Cyclopropylpiperazin-1-yl)carbonyl]-2-methoxyphenyl}amino)-1,3-dimethyl-4-(tetrahydro-2H-pyran-4-yl)-3,4-dihydropyrido[2,3-b]pyrazin-2(1H)-one] | 234 nM | 120 nM
12 | C[C@@H]1C(=O)N(C)c2ccc(Nc3ccc(C(=O)NC4CCC(N5CCC(F)(F)CC5)CC4)cc3)nc2N1C1CCCCC1 (stereo partly drawn) [Example 71, 4-{[(3R)-4-Cyclohexyl-1,3-dimethyl-2-oxo-1,2,3,4-tetrahydropyrido[2,3-b]pyrazin-6-l]amino}-N-[4-(4,4-difluoropiperidin-1-yl)cyclohexyl]benzamide] | 961 nM | 445 nM
13 | COc1cc(C(=O)N2CC3(COC3)C2)ccc1Nc1ccc2c(n1)N(C1CCCCC1)[C@H](C)C(=O)N2C [Example 73, (3R)-4-Cyclohexyl-6-{[2-methoxy-4-(2-oxa-6-azaspiro[3.3]hept-6-ylcarbonyl)phenyl]amino}-1,3-dimethyl-3,4-dihydropyrido[2,3-b]pyrazin-2(1H)-one] | 273 nM | 196 nM
